Test results from ChEMBL document CHEMBL5030544, “Synthesis, anti-microbial, toxicity and molecular docking studies of N-nitroso-N-phenylhydroxylamine (cupferron) and its derivatives” (Bioorg Med Chem Lett, 2021).
Calls of active or inactive are those of the source. No cut-off for these calls is given here.

Tests used:
Corynebacterium [1] = experiment: Antibacterial activity against Corynebacterium ATCC 49368 assessed as zone of inhibition at 15 mg/ml; assay type: functional; settings: read-out: IZ
Corynebacterium [2] = experiment: Antibacterial activity against Corynebacterium ATCC 49368 assessed as bacterial growth inhibition; assay type: functional
Escherichia coli [3] = experiment: Antibacterial activity against Escherichia coli ATCC 25922 assessed as bacterial growth inhibition; assay type: functional
Staphylococcus aureus [4] = experiment: Antibacterial activity against Staphylococcus aureus […] assessed as zone of inhibition at 15 mg/ml; assay type: functional; settings: read-out: IZ
Staphylococcus aureus [5] = experiment: Antibacterial activity against Staphylococcus aureus […] assessed as bacterial growth inhibition; assay type: functional
Bacillus subtilis [6] = experiment: Antibacterial activity against Bacillus subtilis ATCC 23857 assessed as bacterial growth inhibition; assay type: functional
Escherichia coli [7] = experiment: Antibacterial activity against Escherichia coli ATCC 25922 assessed as zone of inhibition at 5 mg/ml; assay type: functional; settings: read-out: IZ
Staphylococcus aureus [8] = experiment: Antibacterial activity against Staphylococcus aureus […] assessed as zone of inhibition at 5 mg/ml; assay type: functional; settings: for zone of inhibition at 5000 µg/mL: read-out: IZ
HepG2 = experiment: Cytotoxicity against human HepG2 cells at up to 100 uM by MTT assay; assay type: cell-based
Klebsiella pneumoniae [9] = experiment: Antibacterial activity against Klebsiella pneumoniae ATCC 13883 assessed as zone of inhibition at 5 mg/kg; assay type: functional; settings: read-out: IZ
Klebsiella pneumoniae [10] = experiment: Antibacterial activity against Klebsiella pneumoniae ATCC 13883 assessed as zone of inhibition at 15 mg/kg; assay type: functional; settings: read-out: IZ
Streptococcus pyogenes [11] = experiment: Antibacterial activity against Streptococcus pyogenes ATCC 19615 assessed as zone of inhibition at 15 mg/ml; assay type: functional; settings: read-out: IZ
Escherichia coli [12] = experiment: Antibacterial activity against Escherichia coli ATCC 25922 assessed as zone of inhibition at 15 mg/ml; assay type: functional; settings: read-out: IZ
Salmonella typhi [13] = experiment: Antibacterial activity against Salmonella typhi ATCC 6539 assessed as zone of inhibition at 15 mg/kg; assay type: functional, Salmonella enterica subsp. enterica serovar Typhi; settings: Salmonella enterica, read-out: IZ
Pseudomonas aeruginosa [14] = experiment: Antibacterial activity against Pseudomonas aeruginosa ATCC 27853 assessed as bacterial growth inhibition; assay type: functional
Klebsiella pneumoniae [15] = experiment: Antibacterial activity against Klebsiella pneumoniae ATCC 13883 assessed as zone of inhibition at 10 mg/kg; assay type: functional; settings: read-out: IZ
Corynebacterium [16] = experiment: Antibacterial activity against Corynebacterium ATCC 49368 assessed as zone of inhibition at 5 mg/ml; assay type: functional; settings: read-out: IZ
Streptococcus pyogenes [17] = experiment: Antibacterial activity against Streptococcus pyogenes ATCC 19615 assessed as zone of inhibition at 5 mg/ml; assay type: functional; settings: read-out: IZ
Escherichia coli [18] = experiment: Antibacterial activity against Escherichia coli ATCC 25922 assessed as zone of inhibition at 10 mg/ml; assay type: functional; settings: read-out: IZ
Pseudomonas aeruginosa [19] = experiment: Antibacterial activity against Pseudomonas aeruginosa ATCC 27853 assessed as zone of inhibition at 5 mg/ml; assay type: functional; settings: read-out: IZ
Streptococcus pyogenes [20] = experiment: Antibacterial activity against Streptococcus pyogenes ATCC 19615 assessed as zone of inhibition at 10 mg/ml; assay type: functional; settings: read-out: IZ
Staphylococcus aureus [21] = experiment: Antibacterial activity against Staphylococcus aureus […] assessed as zone of inhibition at 10 mg/ml; assay type: functional; settings: read-out: IZ
Streptococcus pyogenes [22] = experiment: Antibacterial activity against Streptococcus pyogenes ATCC 19615 assessed as bacterial growth inhibition; assay type: functional
Salmonella typhi [23] = experiment: Antibacterial activity against Salmonella typhi ATCC 6539 assessed as zone of inhibition at 5 mg/kg; assay type: functional, Salmonella enterica subsp. enterica serovar Typhi; settings: Salmonella enterica, read-out: IZ
Bacillus subtilis [24] = experiment: Antibacterial activity against Bacillus subtilis ATCC 23857 assessed as zone of inhibition at 10 mg/ml; assay type: functional; settings: read-out: IZ
Salmonella typhi [25] = experiment: Antibacterial activity against Salmonella typhi ATCC 6539 assessed as zone of inhibition at 10 mg/kg; assay type: functional, Salmonella enterica subsp. enterica serovar Typhi; settings: Salmonella enterica, read-out: IZ
Pseudomonas aeruginosa [26] = experiment: Antibacterial activity against Pseudomonas aeruginosa ATCC 27853 assessed as zone of inhibition at 15 mg/ml; assay type: functional; settings: read-out: IZ
Pseudomonas aeruginosa [27] = experiment: Antibacterial activity against Pseudomonas aeruginosa ATCC 27853 assessed as zone of inhibition at 10 mg/ml; assay type: functional; settings: read-out: IZ
LLC-PK1 = experiment: Cytotoxicity against pig LLC-PK1 cells at up to 100 uM by MTT assay; assay type: cell-based, Sus scrofa
Klebsiella pneumoniae [28] = experiment: Antibacterial activity against Klebsiella pneumoniae ATCC 13883 assessed as bacterial growth inhibition; assay type: functional
Salmonella typhi [29] = experiment: Antibacterial activity against Salmonella typhi ATCC 6539 assessed as bacterial growth inhibition; assay type: functional, Salmonella enterica subsp. enterica serovar Typhi
Bacillus subtilis [30] = experiment: Antibacterial activity against Bacillus subtilis ATCC 23857 assessed as zone of inhibition at 15 mg/ml; assay type: functional; settings: read-out: IZ
Corynebacterium [31] = experiment: Antibacterial activity against Corynebacterium ATCC 49368 assessed as zone of inhibition at 10 mg/ml; assay type: functional; settings: read-out: IZ
Bacillus subtilis [32] = experiment: Antibacterial activity against Bacillus subtilis ATCC 23857 assessed as zone of inhibition at 5 mg/ml; assay type: functional; settings: read-out: IZ

SMILES	zone of inhibition at 15000 µg/mL (Corynebacterium [1])	MIC (Corynebacterium [2])	MIC (Escherichia coli [3])	zone of inhibition at 15000 µg/mL (Staphylococcus aureus [4])	MIC (Staphylococcus aureus [5])	MIC (Bacillus subtilis [6])	zone of inhibition at 5000 µg/mL (Staphylococcus aureus [8])	zone of inhibition at 15 mg/kg (Klebsiella pneumoniae [10])	zone of inhibition at 15000 µg/mL (Streptococcus pyogenes [11])	zone of inhibition at 10 mg/kg (Klebsiella pneumoniae [15])	zone of inhibition at 5000 µg/mL (Corynebacterium [16])	zone of inhibition at 5000 µg/mL (Streptococcus pyogenes [17])	zone of inhibition at 10000 µg/mL (Streptococcus pyogenes [20])	zone of inhibition at 10000 µg/mL (Staphylococcus aureus [21])	MIC (Streptococcus pyogenes [22])	zone of inhibition at 10000 µg/mL (Bacillus subtilis [24])	zone of inhibition at 15000 µg/mL (Pseudomonas aeruginosa [26])	MIC (Klebsiella pneumoniae [28])	zone of inhibition at 15000 µg/mL (Bacillus subtilis [30])	zone of inhibition at 5000 µg/mL (Bacillus subtilis [32])	further results
N.O=NN(O)c1ccc(Cl)cc1	23 mm	8 µg/mL	20 µg/mL	25 mm	4 µg/mL	2 µg/mL	9 mm	15 mm	27 mm	11 mm	13 mm	12 mm	15 mm	9 mm	4 µg/mL	19 mm	13 mm	20 µg/mL	35 mm	14 mm	zone of inhibition at 5000 µg/mL (Escherichia coli [7]): 10 mm; Activity (HepG2): Non-Toxic; zone of inhibition at 5 mg/kg (Klebsiella pneumoniae [9]): 8 mm; zone of inhibition at 15000 µg/mL (Escherichia coli [12]): 20 mm; zone of inhibition at 15 mg/kg (Salmonella typhi [13]): 19 mm; MIC (Pseudomonas aeruginosa [14]): 20 µg/mL; zone of inhibition at 10000 µg/mL (Escherichia coli [18]): 14 mm; zone of inhibition at 5000 µg/mL (Pseudomonas aeruginosa [19]): 5 mm; zone of inhibition at 5 mg/kg (Salmonella typhi [23]): 9 mm; zone of inhibition at 10 mg/kg (Salmonella typhi [25]): 13 mm; zone of inhibition at 10000 µg/mL (Pseudomonas aeruginosa [27]): 10 mm; Activity (LLC-PK1): Non-Toxic; MIC (Salmonella typhi [29]; Salmonella enterica): 20 µg/mL; zone of inhibition at 10000 µg/mL (Corynebacterium [31]): 16.1 mm
N.O=NN(O)c1ccc(CCl)cc1	17 mm	16 µg/mL	inactive	20 mm	16 µg/mL	16 µg/mL	8 mm	10 mm	18 mm	7 mm	13 mm	10 mm	12 mm	12 mm	8 µg/mL	14 mm	15 mm	inactive	18 mm	10 mm	zone of inhibition at 10000 µg/mL (Pseudomonas aeruginosa [27]): 10 mm; MIC (Salmonella typhi [29]; Salmonella enterica subsp. enterica serovar Typhi): inactive; zone of inhibition at 10000 µg/mL (Corynebacterium [31]): 14 mm
N.O=NN(O)c1ccccc1	10 mm	20 µg/mL	inactive	12 mm	20 µg/mL	16 µg/mL	–	–	20 mm	–	–	8 mm	10 mm	9 mm	20 µg/mL	15 mm	–	inactive	17 mm	10 mm	MIC (Staphylococcus aureus [8]): inactive; MIC (Salmonella typhi [29]; Salmonella enterica): 20 µg/mL
